Experimental findings from patent publication US20250101062A1, “ANTIMICROBIAL PEPTIDES” (Board of Regents of the University of Nebraska, priority 2023, published 2025) are described below.

Values after ≈ are worked out from the molar mass of the structure shown. Where no end group is shown, it is not given here.

The test system of one data set is K. pneumoniae E406-17. The data set is classed as cell-based, Klebsiella pneumoniae. In outline:
(§1)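 Peptides twofold serially diluted against exponential-phase resistant clinical isolates at ~10^5 CFU/mL in MHB (also diluted MHB, TSB or LB in one protocol), CLSI-based broth microdilution. Incubated overnight at 37° C., OD 600 nm read; MIC taken as lowest concentration without growth, reported as ranges.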

Data set [1] deals with MRSA USA300. The data set can be described thus: Inhibition of bacterial attachment. The conditions noted are these: Example 1, 4× and 8×MIC. The format is cell-based, Staphylococcus aureus. Here is the method:
Inhibition of Bacterial Attachment. Bacterial attachment is the initial step for biofilm formation. For this experiment, an overnight culture of MRSA USA300 was grown overnight in TSB media to an optical density (OD600) of ˜1.0. […] The plates were then incubated at 37° C. for 1 hour. Next, the medium was aspirated and washed with 1×PBS, and 200 μL of TSB containing XTT 10% [2,3-bis(2-methyloxy-4-nitro-5-sulfophenyl)-2H-tertazolium-5-carboxanilide](ATCC, VA) solution was added. After incubation at 37° C. for 2 hours, absorbance was read at 450 nm using a ChroMate™ microtiter plate reader. TSB containing 10% XTT served as a blank, while bacterial culture treated with water served as a positive control. Percentages of viable cells in biofilms were plotted by assuming 100% growth in water treated control.
Bacterial attachment was conducted (Mishra, et al. (2016) ACS Med. Chem. Lett., 77(1):117-121; Duplantier, et al. (2013) Front. Immunol., 4: 143). In brief, an overnight culture of MRSA USA300 or P. aeruginosa E411-17 was grown overnight in TSB media to an optical density (OD600) of ˜1.0. […] The plates were then incubated at 37° C. for 1 hour. […] After incubation at 37° C. for 2 hours, absorbance was read at 450 nm using a ChroMate® microtiter plate reader. […]

A further data set deals with S. aureus USA300 LAC. The data set can be described thus: Scanning electron microscopy. The format is cell-based, Staphylococcus aureus. The conditions noted are these: 2×MIC, 30 minutes. Here is the method:
The exponential-phase S. aureus USA300 LAC was treated with a 2×MIC of LL-37mini for 30 minutes. Samples were washed three times with 1×PBS and fixed with 2% paraformaldehyde and 2% glutaraldehyde in 0.1 M PBS. Next, the samples were washed with Sorensen's buffer and postfixed in 1% osmium tetroxide in water for 30 minutes. All samples were then washed in Sorensen's buffer and dehydrated through a graded ethanol series (50, 70, 90, 95, and 100% with ×3 changes). Subsequently, samples were placed in […] 100% for 10 minutes with three changes and left in HMDS in open dishes in the fume hood overnight to allow the HMDS to evaporate. The following day, the samples were mounted on 25 mm aluminum SEM stubs with carbon adhesive tabs. Silver paste was placed around the edges of the samples. Samples were sputter coated with 50 nm of gold/palladium in a Hummer VI sputter coater (Anatech Ltd., Battle Creek, MI) and examined in an FEI Quanta 200 SEM at the UNMC Electron Microscopy Core Facility.

The next data set addresses T1, pepsin (Sus scrofa, UniProt P00791).
T1 construct: purchased Thermo Fisher Scientific
The format is in vitro ADME, mammalian.

Data set [2] relates to E. coli E423-17. The data set can be described thus: Membrane depolarization (DiBAC4(3)). The data set is classed as cell-based, Escherichia coli. The conditions noted are these: Example 1.
The subject of data set [3] is MRSA USA300. The data set can be described thus: Biofilm inhibition. The format is cell-based, Staphylococcus aureus. The note with it: 0.5 to 2×MIC, 24 h. The method, then:
Biofilm Inhibition. MRSA USA300 (10^5 CFU/mL) was prepared from the exponential phase. […] Media were then pipetted out, and the wells were washed with 1×PBS to remove planktonic cells. Live cells in biofilms were quantitated by XTT as described above.

Data set [4] deals with E. coli E423-17. The data set is classed as cell-based, Escherichia coli. The note with it: MHB 100%.
Another data set relates to S. epidermidis 1457. Kind of data set: microbe, parasite or virus in culture. The data set is classed as cell-based, Staphylococcus epidermidis. The note with it: Staphylococcus epidermidis, MHB, Table 8, read-out: Antimicrobial activity (MIC) S. epidermidis 1457. In outline:
as §1

T1 sequence (P00791 60-385): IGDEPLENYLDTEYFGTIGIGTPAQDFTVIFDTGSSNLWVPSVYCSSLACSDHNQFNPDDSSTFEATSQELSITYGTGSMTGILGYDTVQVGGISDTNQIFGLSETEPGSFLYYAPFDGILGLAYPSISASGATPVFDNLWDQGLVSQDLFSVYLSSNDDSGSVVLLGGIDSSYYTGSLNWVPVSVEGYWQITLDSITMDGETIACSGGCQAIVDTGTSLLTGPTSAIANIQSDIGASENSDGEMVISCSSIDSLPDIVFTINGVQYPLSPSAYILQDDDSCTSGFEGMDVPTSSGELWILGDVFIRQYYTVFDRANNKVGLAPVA
Description for pepsin: A solution of peptide/protease (40:1 molar ratio) was made in phosphate-buffered saline (PBS; pH 7.1, Gibco, NY) and incubated at 37° C. for 1 hour. As controls, peptides without proteases were also incubated in the same manner. Then, aliquots of 10 μL were transferred to a 96-well polystyrene microplate and mixed with the exponential-phase MRSA USA300 culture as performed in the antibacterial activity assays above.

Consider RRWWRWWR-NH2 [W543], for which, in the data set on K. pneumoniae E406-17, the “Activity (MIC) K. pneumoniae” value is greater than 32 µM. For the same compound, the anti-attachment ability result in the data set on MRSA USA300 [1] is listed as “did not show anti-attachment ability”. Further, the “cell morphology by SEM” value in the data set on S. aureus USA300 LAC is “cell damages were evident”. The “activity after protease incubation” value at pepsin is “retained antibacterial activity”. The membrane depolarization result in the data set on E. coli E423-17 [2] is listed as “some depolarization”. In addition, in the data set on MRSA USA300 [3], the “inhibition of biofilm formation” value is “more effective than daptomycin”.
Turning to `CC[C@H](C)[C@H](NC(=O)[C@H](CCCCN)NC(=O)[C@H](CCC(=O)O)NC(=O)[C@H](CCCCN)NC(=O)[C@H](CO)NC(=O)[C@H](CCCCN)NC(=O)[C@H](CCCNC(=N)N)NC(=O)[C@H](Cc1ccccc1)NC(=O)[C@H](Cc1ccccc1)NC(=O)[C@H](CC(=O)O)NC(=O)CNC(=O)[C@H](CC(C)C)NC(=O)[C@@H](N)CC(C)C)C(=O)NCC(=O)N[C@@H](CCCCN)C(=O)N[C@@H](CCC(=O)O)C(=O)N[C@@H](Cc1ccccc1)C(=O)N[C@@H](CCCCN)C(=O)N[C@@H](CCCNC(=N)N)C(=O)N[C@H](C(=O)N[C@H](C(=O)N[C@@H](CCC(N)=O)C(=O)N[C@@H](CCCNC(=N)N)C(=O)N[C@H](C(=O)N[C@@H](CCCCN)C(=O)N[C@@H](CC(=O)O)C(=O)N[C@@H](Cc1ccccc1)C(=O)N[C@@H](CC(C)C)C(=O)N[C@@H](CCCNC(=N)N)C(=O)N[C@@H](CC(N)=O)C(=O)N[C@@H](CC(C)C)C(=O)N[C@H](C(=O)N1CCC[C@H]1C(=O)N[C@@H](CCCNC(=N)N)C(=O)N[C@H](C(=O)N[C@@H](CCC(=O)O)C(=O)N[C@@H](CO)C(=O)O)[C@@H](C)O)C(C)C)[C@@H](C)CC)C(C)C)[C@@H](C)CC` [LL-37], in the data set with E. coli E423-17 [4], the “Antimicrobial activity (MIC)” value is “active”.
For `CCCCCCCCCC(=O)N[C@@H](Cc1c[nH]c2ccccc12)C(=O)N[C@H](CC(N)=O)C(=O)N[C@@H](CC(=O)O)C(=O)N[C@@H]1C(=O)NCC(=O)N[C@@H](CCCN)C(=O)N[C@@H](CC(=O)O)C(=O)N[C@H](C)C(=O)N[C@@H](CC(=O)O)C(=O)NCC(=O)N[C@H](CO)C(=O)N[C@@H]([C@H](C)CC(=O)O)C(=O)N[C@@H](CC(=O)c2ccccc2N)C(=O)O[C@@H]1C` [Daptomycin], in the data set with S. epidermidis 1457, the MIC lay in the range of 0.5 to 1 µM (≈ 0.81 to 1.62 µg/mL).
